Reference: ChEMBL document CHEMBL1139090, “Synthesis of potent and tissue-selective androgen receptor modulators (SARMs): 2-(2,2,2)-Trifluoroethyl-benzimidazole scaffold” (Bioorg Med Chem Lett, 2007)
Activity calls are given as the source filed them. The rule behind the calls is not given here.

Assays:
[1] = tested on: Rattus norvegicus; test: Inhibition of prostate weight in immature Sprague-Dawley rat at 2 mg/day, sc relative to testosterone; assay type: functional, Prostate gland; details: for Activity: Prostate gland
[2] = organism: Rattus norvegicus; test: Stimulation of levator ani muscle weight in immature Sprague-Dawley rat at 2 mg/day relative to testosterone; assay type: functional
[3] = organism: Rattus norvegicus; test: Stimulation of levator ani muscle weight in immature Sprague-Dawley rat; assay type: functional
[4] = organism: Rattus norvegicus; test: Inhibition of prostate weight in immature Sprague-Dawley rat; assay type: functional, Prostate gland
[5] = organism: Rattus norvegicus; test: Toxicity in immature Sprague-Dawley rat at 3 mg/day; assay type: organism-based; details: in vivo
[6] = target: T1, Androgen receptor (Homo sapiens, UniProt P10275); test: Binding affinity at androgen receptor expressed in COS cells by whole cell binding assay; assay type: cell-based
T1 sequence (P10275 whole entry): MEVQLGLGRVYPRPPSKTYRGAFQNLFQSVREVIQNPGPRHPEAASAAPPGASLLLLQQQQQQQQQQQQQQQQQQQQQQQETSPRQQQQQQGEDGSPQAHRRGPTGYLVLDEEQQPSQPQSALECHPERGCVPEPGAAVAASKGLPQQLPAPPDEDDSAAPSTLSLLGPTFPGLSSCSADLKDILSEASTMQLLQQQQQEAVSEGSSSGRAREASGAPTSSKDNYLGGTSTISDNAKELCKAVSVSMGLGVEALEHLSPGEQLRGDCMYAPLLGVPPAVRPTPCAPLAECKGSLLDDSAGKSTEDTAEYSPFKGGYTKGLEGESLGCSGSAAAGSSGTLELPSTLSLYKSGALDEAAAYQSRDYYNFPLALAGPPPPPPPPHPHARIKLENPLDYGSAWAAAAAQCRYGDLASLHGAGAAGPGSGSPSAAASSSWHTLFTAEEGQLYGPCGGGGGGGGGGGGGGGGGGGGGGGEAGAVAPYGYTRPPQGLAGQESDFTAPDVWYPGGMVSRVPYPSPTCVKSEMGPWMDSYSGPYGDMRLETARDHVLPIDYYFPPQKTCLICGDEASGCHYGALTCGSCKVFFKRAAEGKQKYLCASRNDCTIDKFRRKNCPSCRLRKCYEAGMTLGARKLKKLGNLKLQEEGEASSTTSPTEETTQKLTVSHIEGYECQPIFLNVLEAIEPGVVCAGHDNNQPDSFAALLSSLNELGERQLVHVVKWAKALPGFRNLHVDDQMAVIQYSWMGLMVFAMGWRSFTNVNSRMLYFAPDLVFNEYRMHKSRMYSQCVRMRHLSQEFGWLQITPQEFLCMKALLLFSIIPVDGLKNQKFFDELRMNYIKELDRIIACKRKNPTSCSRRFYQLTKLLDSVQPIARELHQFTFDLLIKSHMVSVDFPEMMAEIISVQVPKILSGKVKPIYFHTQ

[7] = organism: Rattus norvegicus; test: Stimulation of levator ani muscle weight in mature Sprague-Dawley rat; assay type: functional

SMILES	Inhibition [1] [%]	Activity [2]	also measured
C=C=C(C)C(O)(c1nc2cc(Cl)c(Cl)cc2[nH]1)C(F)(F)F (stereo unspecified)	78	15%	
C=C(C)CC(O)(c1nc2cc(Cl)c(Cl)cc2[nH]1)C(F)(F)F (stereo unspecified)	59	17%	
CCC(C)(C)C(O)(c1nc2cc(Cl)c(Cl)cc2[nH]1)C(F)(F)F (stereo unspecified)	42	11%	
N#CCC(O)(c1nc2cc(Cl)c(Cl)cc2[nH]1)C(F)(F)F (stereo unspecified)	9	126%	ED50 [3]: 0.03 mg/day
CC(C)=CCC(O)(c1nc2cc(Cl)c(Cl)cc2[nH]1)C(F)(F)F (stereo unspecified)	71	inactive	
C/C=C\C(O)(c1nc2cc(Cl)c(Cl)cc2[nH]1)C(F)(F)F (stereo unspecified)	70	73%	ED50 [3]: 0.11 mg/day
OC(Cc1ccc(F)cc1)(c1nc2cc(Cl)c(Cl)cc2[nH]1)C(F)(F)F (stereo unspecified)	72	inactive	
C=CCC(O)(c1nc2cc(Cl)c(Cl)cc2[nH]1)C(F)(F)F (stereo unspecified)	87	34%	ID50 [4]: 0.67 mg/day; ED50 [3]: 1.4 mg/day
CCC(O)(c1nc2cc(Cl)c(Cl)cc2[nH]1)C(F)(F)F (stereo unspecified)	25	106%	Activity [5]: Toxic
C#CCC(O)(c1nc2cc(Cl)c(Cl)cc2[nH]1)C(F)(F)F (stereo unspecified)	68	71%	
CC(C)=CC(O)(c1nc2cc(Cl)c(Cl)cc2[nH]1)C(F)(F)F (stereo unspecified)	45	13%	
OC(c1ccccc1)(c1nc2cc(Cl)c(Cl)cc2[nH]1)C(F)(F)F (stereo unspecified)	61	inactive	
FC(F)(F)C1(c2nc3cc(Cl)c(Cl)cc3[nH]2)C=CCO1 (stereo unspecified)		50%	Activity [1]: inactive
FC(F)(F)C1(c2nc3cc(Cl)c(Cl)cc3[nH]2)CCCN1 (stereo unspecified)	35	4%	
OC(Cc1ccccc1)(c1nc2cc(Cl)c(Cl)cc2[nH]1)C(F)(F)F (stereo unspecified)	86	inactive	
CCSCC(O)(c1nc2cc(Cl)c(Cl)cc2[nH]1)C(F)(F)F (stereo unspecified)	31	96%	IC50 [6]: 17 nM; ED50 [3]: 0.1 mg/day
C/C=C/CC(O)(c1nc2cc(Cl)c(Cl)cc2[nH]1)C(F)(F)F (stereo unspecified)	74	10%	
C/C=C/C(O)(c1nc2cc(Cl)c(Cl)cc2[nH]1)C(F)(F)F (stereo unspecified)	61	23%	
FC(F)(F)C1(c2nc3cc(Cl)c(Cl)cc3[nH]2)C=CCN1 (stereo unspecified)	57	8%	
CC#CC(O)(c1nc2cc(Cl)c(Cl)cc2[nH]1)C(F)(F)F (stereo unspecified)	79	inactive	
CCCC(O)(c1nc2cc(Cl)c(Cl)cc2[nH]1)C(F)(F)F (stereo unspecified)	63	67%	
C=CC(O)(c1nc2cc(Cl)c(Cl)cc2[nH]1)C(F)(F)F (stereo unspecified)	56	82%	IC50 [6]: 7 nM; ED50 [3]: 0.04 mg/day; ED50 [7]: < 0.3 mg/kg
FC(F)(F)C1(c2nc3cc(Cl)c(Cl)cc3[nH]2)CCCO1 (stereo unspecified)	55	64%	
OC(CSCC(F)(F)F)(c1nc2cc(Cl)c(Cl)cc2[nH]1)C(F)(F)F (stereo unspecified)		26%	Activity [1]: inactive
CC(C)=C(C)C(O)(c1nc2cc(Cl)c(Cl)cc2[nH]1)C(F)(F)F (stereo unspecified)	47	inactive	
CC(C)C(O)(c1nc2cc(Cl)c(Cl)cc2[nH]1)C(F)(F)F (stereo unspecified)	33	87%	IC50 [6]: 2 nM; ED50 [3]: 0.05 mg/day
C[C@](O)(CS(=O)(=O)c1ccc(F)cc1)C(=O)Nc1ccc(C#N)c(C(F)(F)F)c1 [(R)-BICALUTAMIDE]	70	inactive	
C=C=CC(O)(c1nc2cc(Cl)c(Cl)cc2[nH]1)C(F)(F)F (stereo unspecified)	85	99%	ED50 [3]: 0.075 mg/day
C=C(C)C(O)(c1nc2cc(Cl)c(Cl)cc2[nH]1)C(F)(F)F (stereo unspecified)	127	inactive	
